Source: patent US20260231913A1, “CANCER MODEL ANIMAL AND METHOD FOR PRODUCING SAME” (ORBIO Corporation, priority 2023, published 2026)
Entries after “also recorded” stand apart in the source; their conditions may differ.

Test system: insulinoma cells MIN 6 cultured with L-glucose
Experiment: Screening of substances that have anticancer effect in mice with intraperitoneally transplanted, L-glucose-cultured insulinoma cells MIN6
Format: in vivo, mouse
Description: Not only human cancer cells A549 but also mouse insulinoma cells MIN6 can be successfully cultured with the L-glucose medium. Mouse insulinoma cells MIN6 were cultured with the D-glucose medium. At a stage where the cells proliferated sufficiently, the medium was changed to the L-glucose medium. Subsequently, the medium change was performed frequently over 2 to 3 days. After almost all dead cells were confirmed to be removed, half the amount of the medium was changed every other day. The MIN6 cells were passaged once or twice using the L-glucose medium. After the culture for 8 to 11 days, the MIN 6 cells were trypsinized to form a cell suspension, which was transplanted at 5×10^6 cells (100 μL)/mouse subcutaneously into the right thigh of mice or at 1.0×10^5 cells (20 μL)/mouse into the abdominal cavity of mice without using Matrigel. As a control, MIN6 cells cultured with the normal D-glucose medium were also transplanted into mice. Because of rapid growth in the D-glucose medium, MIN6 cells were cultured with the D-glucose medium for 6 to 7 days and then transplanted at the same density as that of L-glucose-cultured cells subcutaneously into the right thigh of mice.
A method of screening substances that have anticancer effect was examined using, as a test substance, 2-deoxy-2-(2-oxo-2H-chromen-7-yl) amino-L-glucose (hereinafter referred to as “CLG”) (Japanese Patent No. 6566348), which is a molecule having a 7-OH-cuoumarin moiety bonded to L-glucose via a nitrogen atom.
On day 0, insulinoma cells MIN 6 cultured with L-glucose were intraperitoneally transplanted into 32 mice (four groups each including 8 mice). On day 1, the following groups were prepared: • 8 mice that were intraperitoneally administered every day until day 4 (over 4 minimum days) with a saline solution of CLG at a concentration of 53 mg/kg expected to be safe (CLG administration group); • 8 mice that were intraperitoneally administered only with a CLG-free saline every day until day 7 (over 7 days) (saline administration group); and • 8 mice that were intraperitoneally administered every day until day 7 (over 7 days) with 5-FU (which is used as a standard treatment for pancreatic cancer in Japan and the Europe and also used for treatment of neuroendocrine tumors such as insulinoma) at a high concentration of 25 mg/kg acceptable for nude mice (5-FU administration group).
All mice were euthanized at month 5 and subjected to pathological autopsy.

Row | Compound | pathological finding in individual mice (25 mg/kg intraperitoneally every day, day 1 to day 7, 8 mice) | mice likely to have worsened conditions, dissected on day 10 and each found to have a tumor (25 mg/kg intraperitoneally every day, day 1 to day 7, of 8 mice, day 10) [mice] | share of mice with normal blood sugar levels and no tumor (8 mice, 53 mg/kg intraperitoneally, day 1 to day 4, month 5) [%] | overall anticancer effect in vivo (administered only for 4 days) | mice that maintained normal blood sugar levels until the final euthanasia, with no tumor on dissection (of the 8 mice, 53 mg/kg intraperitoneally every day, day 1 to day 4, euthanasia at month 5) [mice] | mice with a malignant tumor classifiable as neuroendocrine carcinoma (NEC) in the abdominal cavity (of the 8 mice, pathological examination of whole-body sections) | onset of reduction in blood sugar level compared with the saline administration group (remaining 4 of the 8 mice) | necrosis of the intraperitoneal tumor (the one mouse with a malignant tumor)
1 | O=c1[nH]cc(F)c(=O)[nH]1 [5-FU, reference compound] | large, highly-atypical, significant liver metastasis with high malignancy; also recorded: invasive cancer in the smooth muscle around the transverse colon | 3 | – | – | – | – | – | –
2 | 2-deoxy-2-(2-oxo-2H-chromen-7-yl) amino-L-glucose [CLG] | – | – | 50 | significant effect in vivo | 4 | one | one week later | at least 90%
